These compounds were tested against HPK1 (Homo sapiens (Human), UniProt Q92918) (assay: HPK1 Lantha binding assay ("Lanth")). Details: binding assays; Morrison Ki fit.
Outline: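 Ki values are from Morrison-equation fitting of 665/615 nm TR-FRET signals, taking enzyme level, tracer level and tracer Kd into account. The assay mix held HPK1 (2 nM), Eu-anti-GST antibody (2 nM) and Tracer222 (15 nM). Incubations were two 1 h steps at 23 °C, on 5-fold serial compound dilutions.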

Chain of HPK1 (Q92918 1-346 limits assumed): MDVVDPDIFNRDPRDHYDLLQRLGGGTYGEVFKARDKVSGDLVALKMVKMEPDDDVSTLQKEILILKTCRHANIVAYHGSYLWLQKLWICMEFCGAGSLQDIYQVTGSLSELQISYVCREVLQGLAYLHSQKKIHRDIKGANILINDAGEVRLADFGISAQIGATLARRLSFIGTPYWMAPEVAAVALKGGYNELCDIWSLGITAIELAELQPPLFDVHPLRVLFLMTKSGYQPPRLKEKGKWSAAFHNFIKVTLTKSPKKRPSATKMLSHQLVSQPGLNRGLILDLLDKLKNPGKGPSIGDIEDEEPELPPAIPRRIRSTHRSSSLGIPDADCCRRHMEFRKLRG

Row | Compound | Ki [nM]
1 | CN(C)C(=O)c1c(N)ccc(-c2cnc3c(c2Cl)[C@@]2(CN3)C[C@H]2CO)c1F [Compound 39a, 6-Amino-3-((1R,2R)-4′-chloro-2-(hydroxymethyl)-1′,2′-dihydrospiro[cyclopropane-1,3′-pyrrolo[2,3-b]pyridin]-5′-yl)-2-fluoro-N,N-dimethylbenzamide] | 27.7
2 | CN(C)C(=O)c1c(N)ccc(-c2cnc3c(c2Cl)[C@]2(CC[C@H](O)CC2)CN3)c1F [Compound 144b, 6-Amino-3-((1s,4s)-4′-chloro-4-hydroxy-1′,2′-dihydrospiro[cyclohexane-1,3′-pyrrolo[2,3-b]pyridin]-5′-yl)-2-fluoro-N,N-dimethylbenzamide] | 9.98
3 | CN(c1cc(C#N)cc2c(-c3cnc4c(c3)C3(CC3)CN4)cn(C)c12)S(C)(=O)=O [Compound 341, N-(5-Cyano-3-(1′,2′-dihydrospiro[cyclopropane-1,3′-pyrrolo[2,3-b]pyridin]-5′-yl)-1-methyl-1H-indol-7-yl)-N-methylmethanesulfonamide] | 12.4
4 | CC1(C(N)=O)C(=O)Nc2ccc(-c3cnc4c(c3Cl)C3(CC3)CN4)cc21 (stereo not shown) [Compound 281, 5-(4′-chloro-1′,2′-dihydrospiro[cyclopropane-1,3′-pyrrolo[2,3-b]pyridin]-5′-yl)-3-methyl-2-oxoindoline-3-carboxamide] | 144
5 | CN(C)C(=O)c1c(N)ccc(-c2cnc3c(c2Cl)[C@]2(CC[C@H](n4cnc(N)n4)C2)CN3)c1F (relative stereo) [Compound 119a, 6-Amino-3-((1R,3S)-3-(3-amino-1H-1,2,4-triazol-1-yl)-4′-chloro-1′,2′-dihydrospiro[cyclopentane-1,3′-pyrrolo[2,3-b]pyridin]-5′-yl)-2-fluoro-N,N-dimethylbenzamide] | 76.8
6 | CN(C)C(=O)c1c(N)ccc(-c2cnc3c(c2Cl)[C@]2(CN3)CC(O)C(n3ccnn3)C2)c1F (stereo in doubt) [Compound 146a, 6-Amino-3-((1R,3S,4S)-4′-chloro-3-hydroxy-4-(1H-1,2,3-triazol-1-yl)-1′,2′-dihydrospiro[cyclopentane-1,3′-pyrrolo[2,3-b]pyridin]-5′-yl)-2-fluoro-N,N-dimethylbenzamide] | 494
7 | CN(C)C(=O)c1c(N)ccc(-c2cnc3c(c2Cl)[C@@]2(CN3)C[C@@H]2c2ccncc2)c1F (relative stereo) [Compound 198a, 6-Amino-3-((1R,2R)-4′-chloro-2-(pyridin-4-yl)-1′,2′-dihydrospiro[cyclopropane-1,3′-pyrrolo[2,3-b]pyridin]-5′-yl)-2-fluoro-N,N-dimethylbenzamide] | 15.2
8 | CN(C)C(=O)c1cccc(-c2cnc3c(c2Cl)C2(CC=CC2)CN3)c1 [Compound 226, 3-(4′-Chloro-1′,2′-dihydrospiro[cyclopentane-1,3′-pyrrolo[2,3-b]pyridin]-3-en-5′-yl)-N,N-dimethylbenzamide] | 14
9 | Cc1cc(C)n(-c2cccc(-c3cnc4c(c3Cl)C3(CC=CC3)CN4)c2)n1 [Compound 238, 4′-Chloro-5′-(3-(3,5-dimethyl-1H-pyrazol-1-yl)phenyl)-1′,2′-dihydrospiro[cyclopentane-1,3′-pyrrolo[2,3-b]pyridin]-3-ene] | 22.9
10 | CN(C)C(=O)c1c(N)ccc(-c2cnc3c(c2Cl)[C@]2(CC[C@@](C)(O)CC2)CN3)c1F [Compound 194a, 6-Amino-3-((1r,4r)-4′-chloro-4-hydroxy-4-methyl-1′,2′-dihydrospiro[cyclohexane-1,3′-pyrrolo[2,3-b]pyridin]-5′-yl)-2-fluoro-N,N-dimethylbenzamide] | 30.4
11 | Nc1cc(-c2cnc3c(c2Cl)[C@@]2(CC[C@@H](O)C2)CN3)cc(-c2ncccc2CO)c1 (single isomer, unassigned) [Compound 61b] | 12.1
12 | CN(CCO)C(=O)c1c(N)ccc(-c2cnc3c(c2Cl)C2(CCC2)CN3)c1F [Compound 44, 6-Amino-3-(4′-chloro-1′,2′-dihydrospiro[cyclobutane-1,3′-pyrrolo[2,3-b]pyridin]-5′-yl)-2-fluoro-N-(2-hydroxyethyl)-N-methylbenzamide] | 4.4
13 | CN(C)C(=O)c1c(N)ccc(-c2cnc3c(c2Cl)[C@]2(CC[C@H](c4ncn[nH]4)C2)CN3)c1F (single isomer, unassigned) [Compound 99a] | 14.5
14 | Cc1c(CC#N)ccnc1-c1cccc(-c2cnc3c(c2Cl)[C@]2(CC[C@](C)(C#N)C2)CN3)c1F (single isomer, unassigned) [Compound 266a] | 65.3
15 | Clc1c(-c2cccc3[nH]ccc23)cnc2c1C1(CC=CC1)CN2 [Compound 284, 4-Chloro-5′-(1H-indol-4-yl)-1′,2′-dihydrospiro[cyclopentane-1,3′-pyrrolo[2,3-b]pyridin]-3-ene] | 629
16 | CN(C)C(=O)c1c(N)ccc(-c2cnc3c(c2Cl)[C@]2(CC[C@@H](CC(N)=O)C2)CN3)c1F (single isomer, unassigned) [Compound 135c] | 2.95
17 | CN(C)C(=O)c1c(N)ccc(-c2cnc3c(c2Cl)[C@]2(CC[C@H](CC(N)=O)C2)CN3)c1F (relative stereo) [Compound 135a, 6-Amino-3-((1R,3S)-3-(2-amino-2-oxoethyl)-4′-chloro-1′,2′-dihydrospiro[cyclopentane-1,3′-pyrrolo[2,3-b]pyridin]-5′-yl)-2-fluoro-N,N-dimethylbenzamide] | 7.16
18 | CO[C@H]1C[C@]2(CNc3ncc(-c4ccc(N)c(C(=O)N(C)C)c4F)c(Cl)c32)C1 [Compound 80a, 6-Amino-3-((1r,3r)-4′-chloro-3-methoxy-1′,2′-dihydrospiro[cyclobutane-1,3′-pyrrolo[2,3-b]pyridin]-5′-yl)-2-fluoro-N,N-dimethylbenzamide] | 97.6
19 | C[C@H]1C[C@@]12CNc1ncc(-c3ccc(N)c(C(=O)N(C)C)c3F)c(Cl)c12 (single isomer, unassigned) [Compound 228a] | 4.76
20 | Cn1cc(C2CCCCN2C(=O)c2c(N)ccc(-c3cnc4c(c3Cl)[C@]3(CC[C@H](O)CC3)CN4)c2F)cn1 (single isomer, unassigned) [Compound 254b] | 109

The remaining lines, values ahead:

Row | Ki [nM] | Compound
21 | 9.4 | CCC[C@H]1C[C@@]12CNc1ncc(-c3ccc(N)c(C(=O)N(C)C)c3F)cc12 (single isomer, unassigned) [Compound 217a]
22 | 342 | O=C1OCc2ccc(-c3cnc4c(c3)C3(CC3)CN4)cc21 [Compound 277, 6-(1′,2′-dihydrospiro[cyclopropane-1,3′-pyrrolo[2,3-b]pyridin]-5′-yl)isobenzofuran-1(3H)-one]
23 | 34.1 | CCN(C(=O)c1cccc(-c2cnc3c(c2)C2(CC2)CN3)c1F)C1CCC1 [Compound 137, N-cyclobutyl-3-(1′,2′-dihydrospiro[cyclopropane-1,3′-pyrrolo[2,3-b]pyridin]-5′-yl)-N-ethyl-2-fluorobenzamide]
24 | 88.5 | O=C(c1cccc(-c2cnc3c(c2Cl)C2(CC2)CN3)c1F)N(CCO)CCO [Compound 47, 3-(4′-Chloro-1′,2′-dihydrospiro[cyclopropane-1,3′-pyrrolo[2,3-b]pyridin]-5′-yl)-2-fluoro-N,N-bis(2-hydroxyethyl)benzamide]
25 | 8.25 | N#CC1CCCCN1C(=O)c1cccc(-c2cnc3c(c2)C2(CC2)CN3)c1F (stereo not shown) [Compound 244, 1-(3-(1′,2′-Dihydrospiro[cyclopropane-1,3′-pyrrolo[2,3-b]pyridin]-5′-yl)-2-fluorobenzoyl)piperidine-2-carbonitrile]
26 | 212 | CC1(O)C(=O)Nc2ccc(-c3cnc4c(c3)C3(CC3)CN4)cc21 (stereo not shown) [Compound 20, 5-(1′,2′-dihydrospiro[cyclopropane-1,3′-pyrrolo[2,3-b]pyridin]-5′-yl)-3-hydroxy-3-methylindolin-2-one]
27 | 172 | CN(C)C(=O)c1c(N)ccc(-c2cnc3c(c2)[C@]2(CC[C@@H](O)CC2)CN3)c1F [Compound 111b, 6-Amino-2-fluoro-3-((1r,4r)-4-hydroxy-1′,2′-dihydrospiro[cyclohexane-1,3′-pyrrolo[2,3-b]pyridin]-5′-yl)-N,N-dimethylbenzamide]
28 | 130 | Cn1cnnc1-c1ccc2[nH]cc(-c3cnc4c(c3)C3(CC3)CN4)c2c1 [Compound 335, 5′-(5-(4-Methyl-4H-1,2,4-triazol-3-yl)-1H-indol-3-yl)-1′,2′-dihydrospiro[cyclopropane-1,3′-pyrrolo[2,3-b]pyridine]]
29 | 20.8 | CN(C(=O)c1c(N)ccc(-c2cnc3c(c2)C2(CC2)CN3)c1F)C(C)(C)CO [Compound 19, 6-amino-3-(1′,2′-dihydrospiro[cyclopropane-1,3′-pyrrolo[2,3-b]pyridin]-5′-yl)-2-fluoro-N-(1-hydroxy-2-methylpropan-2-yl)-N-methylbenzamide]
30 | 84.9 | CS(=O)(=O)c1cccc(-c2cnc3c(c2)C2(CC2)CN3)c1 [Compound 63, 5′-(3-(Methylsulfonyl)phenyl)-1′,2′-dihydrospiro[cyclopropane-1,3′-pyrrolo[2,3-b]pyridine]]
31 | 139 | CC(=O)NC1CN(C(=O)c2cccc(-c3cnc4c(c3Cl)C3(CC3)CN4)c2F)C1 [Compound 50, N-(1-(3-(4′-Chloro-1′,2′-dihydrospiro[cyclopropane-1,3′-pyrrolo[2,3-b]pyridin]-5′-yl)-2-fluorobenzoyl)azetidin-3-yl)acetamide]
32 | 160 | CN(C)C(=O)c1c(N)ccc(-c2cnc3c(c2)[C@]2(CN3)C[C@H](O)C2)c1F [Compound 77a, 6-Amino-2-fluoro-3-((1r,3r)-3-hydroxy-1′,2′-dihydrospiro[cyclobutane-1,3′-pyrrolo[2,3-b]pyridin]-5′-yl)-N,N-dimethylbenzamide]
33 | 35.6 | CN(C)C(=O)c1cc(-c2cnc3c(c2)C2(CC2)CN3)ccc1N [Compound 2, 2-Amino-5-(1′,2′-dihydrospiro[cyclopropane-1,3′-pyrrolo[2,3-b]pyridin]-5′-yl)-N,N-dimethylbenzamide]
34 | 869 | CNS(=O)(=O)c1cccc(-c2cnc3c(c2)C2(CC2)CN3)c1F [Compound 22, 3-(1′,2′-dihydrospiro[cyclopropane-1,3′-pyrrolo[2,3-b]pyridin]-5′-yl)-2-fluoro-N-methylbenzenesulfonamide]

From patent US12208088B2 (Genentech, Inc., priority 2018, dated 2025)
